Results: US10093664B2, “Bicyclo[1.1.1]pentane inhibitors of dual leucine zipper (DLK) kinase for the treatment of disease” (priority 2016, dated 2018)
pIC50, pKd: −log10 of the molar value.

Columns and labels:
human DLK [1] = biological target: T1, human DLK (Homo sapiens (Human), UniProt Q12852); assay: biochemical; type: binding; details: Table 2b DLK activity (global); read-out: Kd
Experimental: The DLK dissociation constants (Kd) have been determined in the KINOMEscan KdELECT Service at DiscoveRx.
A fusion protein of full length of human DLK (amino acids 1-859) and the DNA binding domain of NFkB was expressed in transiently transfected HEK293 cells. From these HEK 293 cells, extracts were prepared in M-PER extraction buffer (Pierce) in the presence of Protease Inhibitor Cocktail Complete (Roche) and Phosphatase Inhibitor Cocktail Set II (Merck) per manufacturers' instructions. The DLK fusion protein was labeled with a chimeric double-stranded DNA tag containing the NFkB binding site (5′-[sequence]-3′) fused to an amplicon for qPCR readout, which was added directly to the expression extract (the final concentration of DNA-tag in the binding reaction is 0.1 nM).
The liganded beads were blocked with excess biotin and washed with blocking buffer (SeaBlock (Pierce), 1% BSA, 0.05% Tween 20, 1 mM DTT) to remove unbound ligand and to reduce nonspecific binding.
Extracts were used directly in binding assays without any enzyme purification steps at a ≥10,000-fold overall stock dilution (final DNA-tagged enzyme concentration <0.1 nM). Extracts were loaded with DNA-tag and diluted into the binding reaction in a two step process. First extracts were diluted 1:100 in 1× binding buffer (PBS/0.05% Tween 20/10 mM DTT/0.1% BSA/2 μg/ml sonicated salmon sperm DNA) containing 10 nM DNA-tag. This dilution was allowed to equilibrate at room temperature for 15 minutes and then subsequently diluted 1:100 in 1× binding buffer. Test compounds were prepared as 111× stocks in 100% DMSO. Kds were determined using an 11-point 3-fold compound dilution series with three DMSO control points. […] The compounds were then diluted directly into the assays such that the final concentration of DMSO was 0.9%. All reactions performed in polypropylene 384-well plates. Each was a final volume of 0.02 mL. Assays were incubated with shaking for 1 hour at room temperature. Then the beads were pelleted and washed with wash buffer (1×PBS, 0.05% Tween 20) to remove displaced kinase and test compound. […] The kinase concentration in the eluates was measured by qPCR. qPCR reactions were assembled by adding 2.5 μL of kinase eluate to 7.5 μL of qPCR master mix containing 0.15 μM amplicon primers and 0.15 μM amplicon probe. The qPCR protocol consisted of a 10 minute hot start at 95° C., followed by 35 cycles of 95° C. for 15 seconds, 60° C. for 1 minute.
Test compounds were prepared as 11× stocks in 100% DMSO. Kds were determined using an 11-point 3-fold compound dilution series with three DMSO control points. […] The compounds were then diluted directly into the assays such that the final concentration of DMSO was 0.9%. The Kds were determined using a compound top concentration of 30,000 nM. Kd measurements were performed in duplicate.
Binding constants (Kds) were calculated with a standard dose-response curve using the Hill equation:
The Hill Slope was set to −1.

human DLK [2] = biological target: T1, human DLK; assay: cell-based; details: Table 2b (global); additional assay runs on multiple batches, includes Table 2a data in the averaging; p-cJun (Ser63), HEK293; read-out: Cell IC50
Experimental: HEK293 cells stably transfected with a Dox-inducible human DLK were plated into a 384-well plate in 20 μl (40,000 cells/well) of DMEM medium (without phenol red) containing 10% fetal bovine serum, 1.5 μg/ml doxycycline and 1 μg/ml puromycin. The cells as negative control were grown in the absence of doxycycline. The plate was incubated at 37° C., 5% CO2 for 20 h, before DMSO (control) or compounds diluted in medium were added. The cells were incubated at 37° C. for an additional 5 h, followed by lysis and the addition detection antibodies from p-cJun (Ser63) cellular assay kit (Cisbio) per manufacturer protocol. The standard dose response curves were fitted by Genedata Screener software using the variable-slope model: Signal=Signalnegative control+(SignalDMSO control−Signalnegative control)/(1+(IC50/Dose)^Hill slope). Only signal and dose in the equation were treated as known values.

| Compound | pKd (human DLK [1]) | pIC50 (human DLK [2]) |
| --- | --- | --- |
| CC(C)c1nc(-c2cnc(N)c(C(F)(F)F)c2)cn1C12CC(C1)C2 [Example 52, 5-(1-(bicyclo[1.1.1]pentan-1-yl)-2-isopropyl-1H-imidazol-4-yl)-3-(trifluoromethyl)pyridin-2-amine] | 7.31 | 6.07 |
| CN1CCN(C23CC(n4cc(-c5cnc(N)c(OC(F)F)c5)nc4CC4CC4)(C2)C3)CC1 [Example 73, 5-(2-(cyclopropylmethyl)-1-(3-(4-methylpiperazin-1-yl)bicyclo[1.1.1]pentan-1-yl)-1H-imidazol-4-yl)-3-(difluoromethoxy)pyridin-2-amine] | 7.74 | 6.20 |
| Nc1ncc(-c2cn(C34CC(N5CCOCC5)(C3)C4)c(C=O)n2)cc1OC(F)(F)F [Example 66, 4-(6-amino-5-(trifluoromethoxy)pyridin-3-yl)-1-(3-morpholinobicyclo[1.1.1]pentan-1-yl)-1H-imidazole-2-carbaldehyde] | 7.36 | 5.85 |
